Reference: patent publication US20230051589A1, “COMPOUNDS AND COMPOSITIONS FOR TREATING CONDITIONS ASSOCIATED WITH NLRP ACTIVITY” (Novartis AG, priority 2018, published 2023)

What follows are compounds tested on IL-1β production in PMA-differentiated THP-1 cells (assay: IL-1β production in PMA-differentiated THP-1 cells stimulated with gramicidin (hTHP-1 assay, 2% fetal bovine serum; Procedures 1-3)). Conditions: Homo sapiens, THP-1, Table B3; hTHP-1 assay containing 2% fetal bovine serum, gramicidin stimulation, IL-1β readout; read-out: hTHP-1 IC50.
Type: cell-based, human
Method in brief: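 PMA-primed THP-1 cells (20 ng/ml PMA, 16-18 h) in RPMI with 2% FBS were pre-incubated with compounds for 1 h, from 100 μM downward in 3-fold steps (0.37% DMSO final), then stimulated with 5 μM gramicidin for 2 h. IL-1β in the supernatant was quantified by HTRF.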

IC50 [µM]	SMILES
0.2 to 1	NS(=O)(=NC(=O)Nc1c2c(cc3c1CCC3)CCC2)c1ccc(-c2ccccc2CO)s1 (centres unmarked) [Example 728, N′-((1,2,3,5,6,7-hexahydro-s-indacen-4-yl)carbamoyl)-5-(2-(hydroxymethyl)phenyl)thiophene-2-sulfonimidamide]
1 to 5	CN(C)Cc1ccc(S(N)(=O)=NC(=O)Nc2c3c(cc4c2CCC4)CCC3)s1 (centres unmarked) [Example 735, 5-((Dimethylamino)methyl)-N-((1,2,3,5,6,7-hexahydro-s-indacen-4-yl)carbamoyl)thiophene-2-sulfonimidamide]

Same assay, conditions: Homo sapiens, THP-1, hTHP-1 assay containing 2% fetal bovine serum, Table B2, class symbols; read-out: IC50

IC50 [µM]	SMILES
1 to 5	NS(=O)(=NC(=O)Nc1c2c(cc3c1CCC3)CCC2)c1ccc(CN2CCC(F)(F)C2)cc1 (single isomer, unassigned) [Example 620, (R) or (S)-4-((3,3-difluoropymolidin-1-yl)methyl)-N′-((1,2,3,5,6,7-hexahydro-s-indacen-4-yl)carbamoyl) benzenesulfonimidamide]
0.008 to 0.04	C[C@@](O)(CO)c1ncc([S@](N)(=O)=NC(=O)Nc2c3c(cc4c2CCC4)CCC3)s1 [Example 714, (R)-2-((R)-1,2-dihydroxypropan-2-yl)-N-((1,2,3,5,6,7-hexahydro-s-indacen-4-yl)carbamoyl)thiazole-5-sulfonimidamide]

Continued, compound first:

SMILES	IC50 [µM]
C[C@](O)(CO)c1ncc([S@](N)(=O)=NC(=O)Nc2c3c(cc4c2CC4)CCC3)s1 [Compound 919d]	0.2 to 1
N[S@](=O)(=NC(=O)Nc1c2c(cc3c1CCC3)CCC2)c1ccc([C@H]2CCN2)cc1 [Compound 802b]	5 to 30
CC(C)(O)c1ccc([S@](N)(=O)=NC(=O)Nc2c3c(cc4c2C(=O)CC4)CCC3)cn1 [Compound 804b]	0.2 to 1
CC(C)(O)c1cnc([S@](N)(=O)=NC(=O)Nc2c3c(cc4c2CCC4O)CCC3)s1 (stereo partly drawn) [Example 512, (R)-N′-((1-hydroxy-1,2,3,5,6,7-hexahydro-s-indacen-4-yl)carbamoyl)-5-(2-hydroxypropan-2-yl)thiazole-2-sulfonimidamide]	1 to 5
CN1CCN(Cc2cccc(S(N)(=O)=NC(=O)Nc3c4c(cc5c3CCC5)CCC4)c2)CC1 (centres unmarked) [Example 505, N′-((1,2,3,5,6,7-hexahydro-s-indacen-4-yl)carbamoyl)-3-((4-methylpiperazin-1-yl)methyl) benzenesulfonimidamide]	5 to 30
CC(C)n1nc([S@@](N)(=O)=NC(=O)Nc2c3c(cc4c2C(=O)CC4)CCC3)cc1C(C)(C)O [Compound 908b]	0.2 to 1
CCn1ccc(S(N)(=O)=NC(=O)Nc2c3c(cc4c2CCC4)CCC3)n1 (centres unmarked) [Compound 904]	0.2 to 1
NS(=O)(=NC(=O)Nc1c2c(cc3c1CCC3)CCC2)c1ccc(CN2CCC2)cc1F (centres unmarked) [Example 462, 4-(azetidin-1-ylmethyl)-2-fluoro-N′-((1,2,3,5,6,7-hexahydro-s-indacen-4-yl)carbamoyl)benzenesulfonimidamide]	1 to 5
CN(C)Cc1ccc(S(N)(=O)=NC(=O)Nc2c3c(cc4c2CC4)CC3)cc1 (centres unmarked) [Example 449, 4-((Dimethylamino)methyl)-N′-(tricyclo[6.2.0.03,6]deca-1,3(6),7-trien-2-ylcarbamoyl)benzenesulfonimidamide]	1 to 5

Same assay, conditions: Homo sapiens, THP-1, hTHP-1 assay containing 2% fetal bovine serum, Table B2, given as bound; read-out: IC50

IC50 [µM]	SMILES
> 30	NS(=O)(=NC(=O)Nc1c2c(cc3c1CCC3)CCC2)c1cccc(CN2CCOCC2)c1 (single isomer, unassigned) [Example 551, (S) or (R)-N′-((1,2,3,5,6,7-hexahydro-s-indacen-4-yl)carbamoyl)-3-(morpholinomethyl) benzenesulfonimidamide]
> 30	C[C@@](O)(CO)c1ncc([S@](N)(=O)=NC(=O)Nc2c3c(cc4c2C(=O)CC4)CCC3)s1 [Compound 920a]
> 30	CN1CCC[C@H](c2ccc([S@@](N)(=O)=NC(=O)Nc3c4c(cc5c3CC5)CCC4)c(F)c2)C1 [Compound 911c]

Same assay, conditions: Table B1; hTHP-1 assay containing 2% fetal bovine serum, gramicidin stimulation, IL-1β readout; read-out: hTHP-1 IC50 (average)

IC50 [µM]	SMILES
0.04 to 0.2	CC(C)c1cc(C#N)c(F)c(C(C)C)c1NC(=O)N=S(N)(=O)c1cnc(C(C)(C)O)s1 (single isomer, unassigned) [Example 91]

Same assay, conditions: Table B3; hTHP-1 assay containing 2% fetal bovine serum, gramicidin stimulation, IL-1β readout; read-out: hTHP-1 IC50

IC50 [µM]	SMILES
1 to 5	NS(=O)(=NC(=O)Nc1c2c(cc3c1CC3)CCC2)c1nn(C(F)F)cc1F (single isomer, unassigned) [Example 840, (S) or (R)-1-(difluoromethyl)-4-fluoro-N′-((2,4,5,6-tetrahydro-1H-cyclobuta[f]inden-3-yl)carbamoyl)-1H-pyrazole-3-sulfonimidamide]
5 to 30	CN(C)Cc1ccc(S(N)(=O)=NC(=O)Nc2c3c(cc4c2CCC4)CCC3)s1 (single isomer, unassigned) [Example 804, (S) or (R)-5-((dimethvlamino)methyl)-N′-((1,2,3,5,6,7-hexahydro-s-indacen-4-yl)carbamoyl)thiophene-2-sulfonimidamide]
1 to 5	NS(=O)(=NC(=O)Nc1c2c(cc3c1CC3)CCC2)c1cc2c(s1)CCN[C@H]2C(F)F (single isomer, unassigned) [Example 877, (S or R,4R)-4-(difluoromethyl)-N′-((2,4,5,6-tetrahydro-1H-cyclobuta[f]inden-3-yl)carbamoyl)-4,5,6,7-tetrahydrothieno[3,2-c]pyridine-2-sulfonimidamide]
1 to 5	CNCc1csc(S(N)(=O)=NC(=O)Nc2c3c(cc4c2CC4)CCC3)c1F (single isomer, unassigned) [Example 871, (S) or (R) -3-fluoro-4-((methylamino)methyl)-N′-((2,4,5,6-tetrahydro-1H-cyclobuta[f]inden-3-yl)carbamoyl)thiophene-2-sulfonimidamide]
1 to 5	COC1CCc2csc(S(N)(=O)=NC(=O)Nc3c4c(cc5c3CCC5)CCC4)c2C1 (single isomer, unassigned) [Example 857, (R, R) or (S, R)-N′-((1,2,3,5,6,7-hexahydro-s-indacen-4-yl)carbamoyl)-6-methoxy-4,5,6,7-tetrahydrobenzo[c]thiophene-1-sulfonimidamide]

Same assay, conditions: hTHP-1 assay containing 2% fetal bovine serum, Table B2, class symbols; read-out: IC50

IC50 [µM]	SMILES
0.04 to 0.2	CO[C@H]1COc2c(S(N)(=O)=NC(=O)Nc3c4c(cc5c3CCC5)CCC4)cnn2C1 (single isomer, unassigned) [Example 695, (R) or (S)-(6R)-N′-((1,2,3,5,6,7-hexahydro-s-indacen-4-yl)carbamoyl)-6-methoxy-6,7-dihydro-5H-pyrazolo[5,1-b][1,3]oxazine-3-sulfonimidamide]
0.2 to 1	CC(O)(CO)c1ncc(S(N)(=O)=NC(=O)Nc2c3c(c(C#N)c4c2CCC4)CCC3)s1 (single isomer, unassigned) [Example 637, (R,R) or (S,R)-N′-((8-cyano-1,2,3,5,6,7-hexahydro-s-indacen-4-yl)carbamoyl)-2-(1,2-dihydroxypropan-2-yl)thiazole-5-sulfonimidamide]
1 to 5	CN1CCc2sc(S(N)(=O)=NC(=O)Nc3c4c(cc5c3CCC5)CCC4)cc2C1 (single isomer, unassigned) [Example 688, (S) or (R)-N′-((1,2,3,5,6,7-hexahydro-s-indacen-4-yl)carbamoyl)-5-methyl-4,5,6,7-tetrahydrothieno [3,2-c]pyridine-2-sulfonimidamide]
5 to 30	CC(C)(O)c1cnc(S(N)(=O)=NC(=O)Nc2c3c(cc4c2C(=O)CC4)CCC3)s1 (single isomer, unassigned) [Example 573, (S) or (R)-5-(2-hydroxypiopan-2-yl)-N′-((3-oxo-1,2,3,5,6,7-hexahydro-s-indacen-4-yl)carbamoyl)thiazole-2-sulfonimidamide]
1 to 5	Cc1c(C2CC2)cc2c(c1NC(=O)N=S(N)(=O)c1sc(C(C)(C)O)cc1F)CCC2 (single isomer, unassigned) [Example 686, (S) or (R)-N′-((6-cyclopropyl-5-methyl-2,3-dihydro-1H-inden-4-yl)carbamoyl)-3-fluoro-5-(2-hydroxypropan-2-yl)thiophene-2-sulfonimidamide]
1 to 5	CN[C@H]1COc2c(S(N)(=O)=NC(=O)Nc3c4c(cc5c3CCC5)CCC4)cnn2C1 (single isomer, unassigned) [Example 698, (S) or (R)-(6R)-N′-((1,2,3,5,6,7-hexahydro-s-indacen-4-yl)carbamoyl)-6-(methylamino)-6,7-dihydro-5H-pyrazolo[5,1-b][1,3]oxazine-3-sulfonimidamide]
5 to 30	CC(C)(O)c1cc(F)c(S(N)(=O)=NC(=O)Nc2c3c(cc4c2CCC4=O)CCC3)s1 (single isomer, unassigned) [Example 601, (S) or (R)-3-fluoro-5-(2-hydroxypropan-2-yl)-N′-((1-oxo-1,2,3,5,6,7-hexahydro-s-indacen-4-yl)carbamoyl)thiophene-2-sulfonimidamide]
0.04 to 0.2	CN[C@H]1COc2c(S(N)(=O)=NC(=O)Nc3c4c(cc5c3CCC5)CCC4)cnn2C1 (single isomer, unassigned) [Example 697, (R) or (S)-(6R)-N′-((1,2,3,5,6,7-hexahydro-s-indacen-4-yl)carbamoyl)-6-(methylamino)-6,7-dihydro-5H-pyrazolo[5,1-b][1,3]oxazine-3-sulfonimidamide]

Second part, the compound before the results:

SMILES	IC50 [µM]
CNCc1ccc(S(N)(=O)=NC(=O)Nc2c3c(cc4c2CC4)CCC3)cc1 (single isomer, unassigned) [Example 536, (S) or (R)-4-((methylamino)methyl)-N′-((2,4,5,6-tetrahydro-1H-cyclobuta[f]inden-3-yl)carbamoyl) benzenesulfonimidamide]	5 to 30
CC(C)(O)c1csc(S(N)(=O)=NC(=O)Nc2c3c(c(C#N)c4c2CCC4)CCC3)n1 (single isomer, unassigned) [Example 541, (R) or (S)-N′-((8-cyano-1,2,3,5,6,7-hexahydro-s-indacen-4-yl)carbamoyl)-4-(2-hydroxypropan-2-yl)thiazole-2-sulfonimidamide]	0.04 to 0.2
